Test [1] has as its target T1, COX-2 (Homo sapiens, UniProt P35354).
T1 construct: gene PTGS2
T1 sequence (P35354 18-604): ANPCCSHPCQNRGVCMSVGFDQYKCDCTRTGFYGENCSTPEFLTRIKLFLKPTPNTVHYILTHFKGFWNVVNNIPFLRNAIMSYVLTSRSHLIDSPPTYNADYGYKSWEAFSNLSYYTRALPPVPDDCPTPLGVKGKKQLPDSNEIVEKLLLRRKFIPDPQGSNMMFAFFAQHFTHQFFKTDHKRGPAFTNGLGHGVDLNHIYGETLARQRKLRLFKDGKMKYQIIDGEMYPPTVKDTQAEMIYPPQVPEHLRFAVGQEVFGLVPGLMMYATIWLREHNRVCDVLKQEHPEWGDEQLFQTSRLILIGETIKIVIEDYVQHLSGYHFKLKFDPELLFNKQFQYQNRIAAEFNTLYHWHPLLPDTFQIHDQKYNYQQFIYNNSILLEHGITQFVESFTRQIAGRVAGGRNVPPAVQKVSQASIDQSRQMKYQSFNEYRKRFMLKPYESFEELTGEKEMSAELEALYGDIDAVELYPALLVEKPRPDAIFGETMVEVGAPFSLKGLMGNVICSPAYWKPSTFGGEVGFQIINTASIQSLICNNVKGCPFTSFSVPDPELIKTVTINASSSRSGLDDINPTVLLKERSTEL
The experiment in a line: Cayman human COX-2 inhibitor screening kit, PGF2alpha ELISA. The conditions noted are these: read-out: COX-2 / Inhibition (%)^b. The class given is biochemical.

The target in test [2] is T1, COX-2. The experiment in a line: biochemical. The settings on record: read-out: COX-2 / Inhibition (%)^b. More on the design: COX-2 inhibitor screening kit, 10 min preincubation, arachidonic acid 2 min, PGF2alpha ELISA at 412 nm. On the procedure:
To analyse the inhibition of the COX-2 enzyme activity mediated by the selected ITCs, the COX-2 (human) inhibitor screening assay kit from Cayman was used. In summary, the COX-2 enzyme was incubated with the samples (having final concentration in the assay of 50 μM, in 96% ethanol) for 10 min at 37 °C and subsequently the reaction was initiated by adding arachidonic acid and incubating the mixture for 2 min at 37 °C. The background tubes correspond to inactivated COX-2 enzyme obtained after keeping the tubes containing enzymes in boiling water for 3 min along with sample solvent. Enzyme catalysis was blocked by adding saturated stannous chloride solution. Prostaglandin (PGF2α) release was quantified using ELISA at 412 nm. Indomethacin solution (having final concentration in the assay of 10 μM, in 96% ethanol) was used as a positive control.

Test [3] has as its target T2, butyrylcholinesterase (BChE) (Equus caballus, UniProt P81908). The experiment in a line: modified Ellman assay. It is filed as biochemical. Also on record: from equine serum.
In test [4] the target is T3, acetylcholinesterase (AChE) (Electrophorus electricus, UniProt O42275). The test is described as follows: biochemical. The conditions noted are these: read-out: AChE / Inhibition (%)^a.
T3 sequence (O42275 24-633): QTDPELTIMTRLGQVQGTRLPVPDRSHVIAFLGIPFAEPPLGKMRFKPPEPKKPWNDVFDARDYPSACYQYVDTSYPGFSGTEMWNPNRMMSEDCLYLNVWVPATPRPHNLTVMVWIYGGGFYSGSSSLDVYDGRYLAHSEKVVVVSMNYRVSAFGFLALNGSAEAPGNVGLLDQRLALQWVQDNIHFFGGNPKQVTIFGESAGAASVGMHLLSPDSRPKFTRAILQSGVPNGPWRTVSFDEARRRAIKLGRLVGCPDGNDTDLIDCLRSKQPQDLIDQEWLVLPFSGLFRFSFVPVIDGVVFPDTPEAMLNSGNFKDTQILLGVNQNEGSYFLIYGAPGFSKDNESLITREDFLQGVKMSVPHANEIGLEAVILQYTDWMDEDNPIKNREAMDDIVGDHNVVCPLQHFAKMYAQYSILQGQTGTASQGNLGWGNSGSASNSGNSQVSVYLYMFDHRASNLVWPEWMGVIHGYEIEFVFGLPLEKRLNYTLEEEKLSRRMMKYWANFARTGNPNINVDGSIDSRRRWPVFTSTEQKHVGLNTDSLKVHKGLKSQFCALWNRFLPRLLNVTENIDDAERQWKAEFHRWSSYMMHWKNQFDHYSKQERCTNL
In test [5] the target is T3, acetylcholinesterase (AChE). The experiment in a line: modified Ellman assay. The class given is biochemical. Also on record: electric eel, type V-S. (In general: In Ellman's method for cholinesterases, released thiocholine reacts with DTNB.)
In test [6] the target is T2, butyrylcholinesterase (BChE). The test is described as follows: biochemical. The settings on record: read-out: BChE / Inhibition (%)^a.

Like-named read-outs stand apart in the source and are kept apart here.

T2 sequence (P81908 whole entry): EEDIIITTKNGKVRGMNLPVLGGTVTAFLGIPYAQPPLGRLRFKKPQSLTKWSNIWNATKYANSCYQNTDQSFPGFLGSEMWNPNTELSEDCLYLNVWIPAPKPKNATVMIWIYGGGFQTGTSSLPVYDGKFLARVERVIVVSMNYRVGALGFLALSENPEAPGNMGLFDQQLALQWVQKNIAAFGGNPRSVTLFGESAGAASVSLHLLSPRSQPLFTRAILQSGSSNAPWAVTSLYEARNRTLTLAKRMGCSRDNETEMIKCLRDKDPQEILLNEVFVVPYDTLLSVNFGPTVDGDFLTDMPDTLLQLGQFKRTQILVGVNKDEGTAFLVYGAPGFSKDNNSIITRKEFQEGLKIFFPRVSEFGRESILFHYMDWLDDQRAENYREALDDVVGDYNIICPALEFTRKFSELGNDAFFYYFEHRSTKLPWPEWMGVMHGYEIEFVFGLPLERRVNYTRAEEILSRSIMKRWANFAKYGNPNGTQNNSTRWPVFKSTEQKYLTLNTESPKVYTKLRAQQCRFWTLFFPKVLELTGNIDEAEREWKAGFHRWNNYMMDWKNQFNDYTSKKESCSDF

Regarding `S=C=Nc1ccccc1` [compound 1, phenyl isothiocyanate], at COX-2 [1], the inhibition at 50 µM was 98.9 ± 0.3%.
Turning to `Cc1ccc(N=C=S)cc1` [compound 5, 4-Methylphenyl ITC], on COX-2 [2], the inhibition at 50 µM amounted to 13.6 ± 0.8%. Also, the results for the inhibition at 1140 µM in test [3] and in test [4] were 40.7 ± 0.7% and 58.4 ± 1.1%, respectively. For the same compound, the IC50 in test [5] came out at 930 µM.
As to `COc1ccccc1N=C=S` [compound 7, 2-Methoxyphenyl ITC], at COX-2 [1], the inhibition at 50 µM came out at 99 ± 0.7%. Also, the inhibition at 1140 µM in test [6] stood at 19.5 ± 0.1%; in test [4], 57 ± 1.5%. For the same compound, the IC50 in test [5] (read-out: AChE / IC50) amounted to 570 µM.
Take `COc1cccc(N=C=S)c1` [compound 8, 3-Methoxyphenyl ITC]: the inhibition at 1140 µM in test [4] came out at 61.4 ± 1.6%. Also, in test [5] (read-out: AChE / IC50), the IC50 turned out to be 1000 µM.
For the compound `CSCCCN=C=S` [compound 11, 3-(Methylsulfanyl)propyl ITC], at COX-2 [1], the inhibition at 50 µM amounted to 48 ± 0.3%. Besides, the inhibition at 1140 µM was 15.4 ± 0.3% in test [6] and 4.4 ± 0.7% in test [4].

(Values after paper PMC6010089, “Isothiocyanates: cholinesterase inhibiting, antioxidant, and anti-inflammatory activity” (Journal of Enzyme Inhibition and Medicinal Chemistry, 2018).)
